Like-named read-outs stand apart in the source and are kept apart here.
Key:
EcCdnD = EcCdnD (Enterobacter hormaechei, UniProt P0DSP4); assay type: biochemical; details: 10 mM MgCl2, 50 mM CAPSO pH 9.4, 37 °C
AbCdnD = target: T1, AbCdnD (Acinetobacter sp. ATCC 27244, UniProt C0VHD2); test: cyclic oligonucleotide synthesis; assay type: biochemical; details: K+, Mg2+, Mn2+, pH 9.0-9.4, 37 °C
T1 sequence (C0VHD2 1-343): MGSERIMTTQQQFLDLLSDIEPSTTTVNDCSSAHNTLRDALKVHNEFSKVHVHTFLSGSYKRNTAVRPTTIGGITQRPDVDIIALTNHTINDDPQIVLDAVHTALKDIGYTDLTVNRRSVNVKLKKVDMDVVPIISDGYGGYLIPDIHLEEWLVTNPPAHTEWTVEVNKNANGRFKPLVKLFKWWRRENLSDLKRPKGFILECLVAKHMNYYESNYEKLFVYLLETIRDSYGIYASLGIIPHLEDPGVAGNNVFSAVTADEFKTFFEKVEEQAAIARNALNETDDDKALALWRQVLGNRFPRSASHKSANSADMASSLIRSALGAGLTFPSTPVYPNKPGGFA

AbCap4 K69A = AbCap4 K69A (Acinetobacter baumannii, UniProt C0VHC9 1-462, K69A); test: EMSA
EcCap4 K74A = target: T2, EcCap4 K74A (Enterobacter cloacae, UniProt P0DUD5 1-499, K74A); test: EMSA
T2 sequence: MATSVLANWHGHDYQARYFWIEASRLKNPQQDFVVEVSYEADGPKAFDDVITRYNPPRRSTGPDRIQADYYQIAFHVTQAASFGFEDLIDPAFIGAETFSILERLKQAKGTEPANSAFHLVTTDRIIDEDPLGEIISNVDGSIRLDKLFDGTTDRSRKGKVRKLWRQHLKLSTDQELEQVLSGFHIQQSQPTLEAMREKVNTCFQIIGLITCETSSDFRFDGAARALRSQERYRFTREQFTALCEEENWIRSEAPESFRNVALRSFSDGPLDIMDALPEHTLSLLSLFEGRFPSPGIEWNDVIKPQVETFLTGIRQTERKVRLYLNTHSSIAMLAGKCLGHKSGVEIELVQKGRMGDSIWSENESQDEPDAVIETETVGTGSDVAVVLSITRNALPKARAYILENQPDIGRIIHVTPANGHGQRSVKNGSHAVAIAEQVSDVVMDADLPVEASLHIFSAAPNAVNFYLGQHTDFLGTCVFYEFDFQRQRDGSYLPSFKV

With `Nc1ncnc2c1ncn2[C@@H]1O[C@H](COP(=O)(O)OP(=O)(O)OP(=O)(O)O)[C@@H](O)[C@H]1O` [ATP] the “TLC with 32P-label” value (EcCdnD; co-substrate GTP, labelled compound) was “EcCdnD: ATP, GTP” and the “cyclic oligonucleotide synthesis; AbCap4 activation, TLC, HPLC” value (AbCdnD) was “ATP is necessary and sufficient to allow AbCdnD to synthesize the activating nucleotide second messenger”.

With `Nc1nc2c(ncn2[C@@H]2O[C@H](COP(=O)(O)OP(=O)(O)OP(=O)(O)O)[C@@H](O)[C@H]2O)c(=O)[nH]1` [GTP] the “TLC with 32P-label” value (EcCdnD; co-substrate ATP) was “EcCdnD: ATP, GTP”.

B1: DNA45 (45 bp DNA) (dsDNA)
DNA 1: TACAGATCTACTAGTGATCTATGACTGATCTGTACATGATCTACA
DNA 2: TGTAGATCATGTACAGATCAGTCATAGATCACTAGTAGATCTGTA
B1: binds (AbCap4 K69A); binds (EcCap4 K74A).

Source: paper PMC7728545 (Cell, 2020)
